Source: US6472348B1, “Pyridone derivatives and herbicides” (Kumiai Chemical Industry Co., Ltd., priority 1996, dated 2002)

What was measured:
Format in all cases: in vivo
[1] = tested on: rice flatsedge (Ci); experiment: Test Example 2: herbicidal effects by upland field soil treatment; conditions: 100 g of the active ingredient per 10 ares;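 further: grade of growth control; 5 = at least 90%; 4 = 70 to 90%; 3 = 50 to 70%; 2 = 30 to 50%; 1 = 10 to 30%; 0 = under 10%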
From the text: (§1) (Test on Herbicidal Effects by Upland Field Soil Treatment)

[2] = tested on: common lambsquarters (Ch); experiment: as above; conditions: 100 g of the active ingredient per 10 ares;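 further: grade of growth control; 5 = at least 90%; 4 = 70 to 90%; 3 = 50 to 70%; 2 = 30 to 50%; 1 = 10 to 30%; 0 = under 10%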
From the text: as §1

[3] = tested on: Digitaria ciliaris (Di); experiment: as above; conditions: 100 g of the active ingredient per 10 ares;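 further: grade of growth control; 5 = at least 90%; 4 = 70 to 90%; 3 = 50 to 70%; 2 = 30 to 50%; 1 = 10 to 30%; 0 = under 10%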
From the text: as §1

[4] = tested on: barnyardgrass (Ec); experiment: as above; conditions: 100 g of the active ingredient per 10 ares;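 further: grade of growth control; 5 = at least 90%; 4 = 70 to 90%; 3 = 50 to 70%; 2 = 30 to 50%; 1 = 10 to 30%; 0 = under 10%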
From the text: as §1

[5] = tested on: slender amaranth (Am); experiment: as above; conditions: 100 g of the active ingredient per 10 ares
From the text: as §1

[6] = tested on: pale smartweed (Po); experiment: as above; conditions: 100 g of the active ingredient per 10 ares
From the text: as §1

[7] = tested on: soybean (Gl); experiment: Test Example 6: crop plant selectivity by upland field soil treatment (soybean), phytotoxicity; set-up: scale not given here; conditions: 21st day after application
Method in brief: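 Pre-emergence soil treatment; sand-filled pots, seeds sown then soil-covered; greenhouse culture; visual rating of weed control and soybean injury on day 21 post-application per standard scale.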

[8] = evaluated on the 21st day after application
[9] = 21st day after the application, index 0-5 of Table 47

SMILES | Herbicidal effects Ci [1, 8] | Herbicidal effects Ch [2, 8] | Herbicidal effects Di [3, 8] | Herbicidal effects Ec [4, 8] | Herbicidal effects Am [5, 8] | Herbicidal effects Po [6, 8] | Phytotoxicity Gl ([7]; dose 1.6 g ai/10a) | Phytotoxicity Gl ([7]; dose 6.3 g ai/10a) | Herbicidal effects Ci [1, 9] | Herbicidal effects Ch [2, 9] | Herbicidal effects Di [3, 9] | Herbicidal effects Ec [4, 9] | Herbicidal effects Am [5, 9] | Herbicidal effects Po [6, 9]
Cn1cc(-c2cc(Oc3ccccc3)c(Cl)cc2F)c(=O)cc1C(F)(F)F [Compound No. 6-19, 5-(4-chloro-2-fluoro-5-phenoxyphenyl)-1-methyl-2-trifluoromethyl-4(1H)-pyridone] | 5 | 5 | 5 | 5 | 5 | 5 | 0 | 0 |  |  |  |  |  | 
C#CCn1c(=O)sc2cc(F)c(-c3ccc(C(F)(F)F)n(C)c3=O)cc21 [Compound No. 3-1, 3-[6-fluoro-3-(2-propynyl)-benzothiazolin-2-on-5-yl]-1-methyl-6-trifluoromethyl-2(1H)-pyridone] | 5 | 5 | 5 | 5 | 5 | 5 |  | 1 |  |  |  |  |  | 
CCc1cc2c(-c3ccc(C(F)(F)F)n(C)c3=O)c(F)cc(Cl)c2o1 [Compound 4-2] | 5 | 5 | 5 | 5 | 5 | 5 | 1 |  |  |  |  |  |  | 
C#CC(C)Oc1cc(-c2ccc(C(F)(F)F)n(C)c2=O)c(F)cc1Cl (stereo not shown) [1-17] |  |  |  |  |  |  | 0 |  | 5 | 5 | 5 | 5 | 5 | 5
C=CCN1C(=O)COc2cc(F)c(-c3ccc(C(F)(F)F)n(C)c3=O)cc21 [Compound 2-7] | 5 | 5 | 5 | 5 | 5 | 5 | 0 | 0 |  |  |  |  |  | 
Cc1cc2c(-c3ccc(C(F)(F)F)n(C)c3=O)c(F)cc(Cl)c2o1 [Compound 4-1] | 5 | 5 | 5 | 5 | 5 | 5 | 1 | 2 |  |  |  |  |  | 
C#CCSc1cc(-c2ccc(C(F)(F)F)n(C)c2=O)c(F)cc1Cl [1-44] |  |  |  |  |  |  |  | 1 | 5 | 5 | 5 | 5 | 5 | 5
C#CC(O)c1cc(-c2ccc(C(F)(F)F)n(C)c2=O)c(F)cc1Cl (stereo not shown) [Compound 1-202] | 5 | 5 | 5 | 5 | 5 | 5 | 2 |  |  |  |  |  |  | 
Cn1c(C(F)(F)F)ccc(-c2cc(Cl)c(Cl)cc2F)c1=O [1-136] |  |  |  |  |  |  | 0 | 1 | 5 | 5 | 5 | 5 | 5 | 5
Cn1c(C(F)(F)F)ccc(-c2cc(OCC3CC3)c(Cl)cc2F)c1=O [1-160] |  |  |  |  |  |  |  | 1 | 5 | 5 | 5 | 5 | 5 | 5
COCSc1cc(-c2ccc(C(F)(F)F)n(C)c2=O)c(F)cc1Cl [1-91] |  |  |  |  |  |  | 0 | 1 | 5 | 5 | 5 | 5 | 5 | 5
Cc1cc(-c2ccc(C(F)(F)F)n(C)c2=O)c(F)cc1Cl [1-90] |  |  |  |  |  |  | 2 | 2 | 5 | 5 | 5 | 5 | 5 | 5
CC(C)Sc1cc(-c2ccc(C(F)(F)F)n(C)c2=O)c(F)cc1Cl [1-43] |  |  |  |  |  |  |  | 1 | 5 | 5 | 5 | 5 | 5 | 5
Cc1cc2c(-c3cn(C)c(C(F)(F)F)cc3=O)c(F)cc(Cl)c2o1 [Compound No. 9-1, 5-(7-chloro-5-fluoro-2-methylbenzofuran-4-yl)-1-methyl-2-trifluoromethyl-4(1H)-pyridone] | 5 | 5 | 5 | 5 | 5 | 5 |  |  |  |  |  |  |  | 
